Like-named read-outs stand apart in the source and are kept apart here. Where a SMILES comes first, the peptide text is derived from it.
Tests used:
H2O2-damaged HUVECs [1] = assay type: cell-based, human
Protocol: The cytotoxic assay was carried out as per the previous method ([54]). […] Then, 20 μL MTT solution (5 mg/mL) was put in and incubated for 4 h. In the end, DMSO was joined in each well plate, and the absorbance (A) at 490 nm was determined. Cell viability(%)= (Asample/Acontrol) × 100. The cytoprotective assay was carried out using the described methods ([55], [56]). In short, HUVECs were cultured in a 96-well plate at a density of 1 × 10^4 cells/cm^2 for 24 h. […] GSH was used as the positive control.

H2O2-damaged HUVECs [2] = assay: MDA level in H2O2-damaged HUVECs; assay type: cell-based, human; conditions: then H2O2 400 μM for 24 h, mean ± SD, n = 3
Protocol: (§1) The cytoprotective assay was carried out using the described methods ([55], [56]). In short, HUVECs were cultured in a 96-well plate at a density of 1 × 10^4 cells/cm^2 for 24 h. Afterward, the supernatant was aspirated, and 20 μL of ACEi peptides (TP6, TP7, and TP10) with the final concentrations of 100 and 200 μM were added to the protection groups, respectively. […] GSH was used as the positive control.
(§2) The level of ROS was determined on the method described by Cai et al. ([55]) and expressed as % of blank control; the levels of MDA, SOD, and GSH-Px were measured using assay kits in accordance with the manufacturer' protocols and expressed as U/mg prot.

HUVECs [3] = assay: Nitric oxide (NO) production in HUVECs; assay type: cell-based, human; conditions: 24 h, mean ± SD, n = 3
Protocol: (§3) HUVECs were cultured in 96-well plates at a density of 1 × 10^4 cells/cm^2 and treated with Cap (1 μM), NE (0.5 μM), or ACEi peptides (100–200 μM) for 24 h, or incubated with both NE (0.5 μM) and 200 μM ACEi peptides for 24 h. NO and ET-1 contents of HUVECs were determined after 24 h according to the NO and ET-1 assay kits as manufactures' protocol ([54]).

HUVECs [4] = assay: Endothelin-1 (ET-1) secretion in HUVECs; assay type: cell-based, human; conditions: 24 h, mean ± SD, n = 3
Protocol: as §3

H2O2-damaged HUVECs [5] = assay: SOD level in H2O2-damaged HUVECs; assay type: cell-based, human; conditions: then H2O2 400 μM for 24 h, mean ± SD, n = 3
Protocol: as §1, §2

H2O2-damaged HUVECs [6] = assay: GSH-Px level in H2O2-damaged HUVECs; assay type: cell-based, human; conditions: then H2O2 400 μM for 24 h, mean ± SD, n = 3
Protocol: as §1, §2

HUVECs [7] = assay: Cytotoxic assay (MTT) on HUVECs; assay type: cell-based, human; conditions: 50–200 μM, 24 h
Protocol: The cytotoxic assay was carried out as per the previous method ([54]). HUVECs were cultured at a density of 1 × 10^4 cells/cm^2 to confluence in DMEM at 37°C in a humidified 5% CO2 atmosphere ([8]). The cytotoxicity of TP1–TP10 on HUVECs was measured using MTT assay ([8]). In short, HUVECs in 96-well plates at a density of 1 × 10^4 cells/cm^2 were separately treated with 20 μL samples at 50 and 200 μM, respectively, and cultured for 24 h. Then, 20 μL MTT solution (5 mg/mL) was put in and incubated for 4 h. In the end, DMSO was joined in each well plate, and the absorbance (A) at 490 nm was determined.
Cell viability(%)= (Asample/Acontrol) × 100.

ACE = ACE (Oryctolagus cuniculus, UniProt G1TYT4); conditions: cited from earlier work
Chain of ACE (G1TYT4 1-1284): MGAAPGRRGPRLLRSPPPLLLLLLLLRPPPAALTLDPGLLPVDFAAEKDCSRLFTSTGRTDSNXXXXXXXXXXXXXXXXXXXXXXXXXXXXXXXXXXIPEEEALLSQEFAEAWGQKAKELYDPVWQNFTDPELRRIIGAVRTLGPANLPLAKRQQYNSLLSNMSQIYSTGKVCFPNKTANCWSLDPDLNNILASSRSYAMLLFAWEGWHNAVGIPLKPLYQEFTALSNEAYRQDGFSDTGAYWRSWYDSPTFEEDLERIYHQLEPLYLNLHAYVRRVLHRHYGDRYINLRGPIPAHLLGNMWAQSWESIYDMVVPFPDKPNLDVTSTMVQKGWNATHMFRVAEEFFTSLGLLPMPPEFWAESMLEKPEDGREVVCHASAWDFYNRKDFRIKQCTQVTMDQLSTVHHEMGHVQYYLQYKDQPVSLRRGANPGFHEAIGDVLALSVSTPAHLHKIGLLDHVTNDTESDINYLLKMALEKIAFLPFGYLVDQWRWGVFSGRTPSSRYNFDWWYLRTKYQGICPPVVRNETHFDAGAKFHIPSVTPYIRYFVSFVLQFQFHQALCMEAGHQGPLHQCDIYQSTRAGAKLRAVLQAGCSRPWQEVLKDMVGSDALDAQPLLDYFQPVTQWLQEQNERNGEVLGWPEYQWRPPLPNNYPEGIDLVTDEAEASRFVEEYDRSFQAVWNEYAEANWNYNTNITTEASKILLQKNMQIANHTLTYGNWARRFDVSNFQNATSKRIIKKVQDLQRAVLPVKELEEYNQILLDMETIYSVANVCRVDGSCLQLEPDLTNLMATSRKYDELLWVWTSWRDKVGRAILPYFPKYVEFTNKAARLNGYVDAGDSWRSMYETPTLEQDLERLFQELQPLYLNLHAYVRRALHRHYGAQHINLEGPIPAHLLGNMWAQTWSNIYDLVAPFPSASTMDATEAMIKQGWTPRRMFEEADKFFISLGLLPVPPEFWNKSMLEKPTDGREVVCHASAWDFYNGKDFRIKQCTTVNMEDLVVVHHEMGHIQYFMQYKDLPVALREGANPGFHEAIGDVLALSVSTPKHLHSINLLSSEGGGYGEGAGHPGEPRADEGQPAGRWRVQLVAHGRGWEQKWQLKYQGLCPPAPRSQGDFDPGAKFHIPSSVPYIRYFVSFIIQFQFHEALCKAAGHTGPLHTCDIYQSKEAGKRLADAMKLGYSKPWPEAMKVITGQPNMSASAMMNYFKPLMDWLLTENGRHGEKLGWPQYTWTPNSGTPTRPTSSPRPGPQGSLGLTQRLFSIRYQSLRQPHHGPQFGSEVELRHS

[8] = molecular target: T1, Angiotensin-converting enzyme (ACE) (UniProt P12822)
T1 sequence: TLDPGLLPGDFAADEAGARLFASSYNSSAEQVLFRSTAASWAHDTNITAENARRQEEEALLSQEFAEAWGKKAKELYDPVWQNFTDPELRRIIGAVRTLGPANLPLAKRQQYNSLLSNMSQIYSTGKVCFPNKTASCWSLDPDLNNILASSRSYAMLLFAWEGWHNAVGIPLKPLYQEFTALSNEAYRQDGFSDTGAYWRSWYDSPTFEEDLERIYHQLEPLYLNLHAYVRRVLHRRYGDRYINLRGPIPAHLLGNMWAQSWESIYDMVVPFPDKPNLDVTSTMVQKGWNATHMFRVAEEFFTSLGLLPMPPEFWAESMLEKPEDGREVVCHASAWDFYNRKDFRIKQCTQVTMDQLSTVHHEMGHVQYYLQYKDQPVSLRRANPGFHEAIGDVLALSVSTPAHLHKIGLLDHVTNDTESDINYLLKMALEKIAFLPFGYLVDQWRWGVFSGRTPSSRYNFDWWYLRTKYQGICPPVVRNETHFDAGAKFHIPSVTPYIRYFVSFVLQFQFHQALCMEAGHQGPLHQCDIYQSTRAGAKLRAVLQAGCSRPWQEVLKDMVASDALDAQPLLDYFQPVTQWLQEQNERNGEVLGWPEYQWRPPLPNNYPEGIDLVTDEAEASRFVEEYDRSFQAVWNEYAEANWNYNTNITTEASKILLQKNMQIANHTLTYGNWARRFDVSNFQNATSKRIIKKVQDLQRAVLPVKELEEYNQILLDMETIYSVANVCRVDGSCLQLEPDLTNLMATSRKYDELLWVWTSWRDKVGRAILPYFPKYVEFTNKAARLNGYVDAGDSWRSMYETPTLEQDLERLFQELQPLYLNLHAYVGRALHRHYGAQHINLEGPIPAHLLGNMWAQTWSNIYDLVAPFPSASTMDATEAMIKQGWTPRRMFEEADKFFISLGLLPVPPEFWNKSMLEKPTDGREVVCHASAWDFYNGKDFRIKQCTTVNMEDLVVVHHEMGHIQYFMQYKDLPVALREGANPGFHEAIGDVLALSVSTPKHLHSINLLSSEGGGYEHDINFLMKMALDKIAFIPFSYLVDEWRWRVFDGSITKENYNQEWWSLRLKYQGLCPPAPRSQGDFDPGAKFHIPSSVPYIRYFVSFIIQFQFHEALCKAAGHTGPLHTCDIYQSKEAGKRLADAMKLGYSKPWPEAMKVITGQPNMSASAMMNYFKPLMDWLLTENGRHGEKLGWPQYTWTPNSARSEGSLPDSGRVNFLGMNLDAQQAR

[9] = NE 0.5 μM together with peptide 200 μM

With `N[C@@H](CCC(=O)N[C@@H](CS)C(=O)NCC(=O)O)C(=O)O` [GSH, glutathione, reference compound] the “cell viability of H2O2-damaged HUVECs” value (H2O2-damaged HUVECs [1]; GSH positive control (concentration not given), then H2O2 400 μM for 24 h, mean ± SD, n = 3) was 75.69 ± 3.52% and the MDA level (H2O2-damaged HUVECs [2]; GSH positive control (concentration not given)) was 15.28 ± 0.61 nmol/mg prot.

In the case of `OO` [H2O2], the “cell viability of HUVECs (% of the blank group)” value (H2O2-damaged HUVECs [1]; H2O2 400 μM alone, 24 h (oxidative damage model), mean ± SD, n = 3) is reported as 50.48 ± 1.96%.

With `NC[C@H](O)c1ccc(O)c(O)c1` [NE, Norepinephrine, reference compound] the NO level (HUVECs [3]; NE 0.5 μM alone) was 22.91 ± 1.26 μmol/gprot and the ET-1 secretion (HUVECs [4]; NE 0.5 μM alone) was 148.35 ± 3.87 pg/mL.

Molecule `CC[C@H](C)[C@H](N)C(=O)N[C@@H](CS)C(=O)N[C@@H](Cc1ccc(O)cc1)C(=O)O` [TP6, Ile-Cys-Tyr] (H-Ile-Cys-Tyr-OH) has an NO level (HUVECs [3]; [9]) of 42.21 ± 2.66 μmol/gprot, an NO level (HUVECs [3]; peptide 200 μM) of 50.63 ± 1.95 μmol/gprot and an SOD level (H2O2-damaged HUVECs [5]; peptide 100 μM for 8 h) of 168.77 ± 5.32 U/mg prot. The SOD level (H2O2-damaged HUVECs [5]; peptide 200 μM for 8 h) was 184.06 ± 7.19 U/mg prot, the “cell viability of H2O2-damaged HUVECs” value (H2O2-damaged HUVECs [1]; 8 h, 200 μM) was 69.76 ± 3.06% and the ET-1 level (HUVECs [4]; [9]) was 105.18 ± 3.29 pg/mL. It also gave an ET-1 level (HUVECs [4]; peptide 200 μM) of 92.57 ± 2.68 pg/mL, an MDA level (H2O2-damaged HUVECs [2]; peptide 200 μM for 8 h) of 17.08 ± 0.96 nmol/mg prot and a GSH-Px level (H2O2-damaged HUVECs [6]; peptide 100 μM for 8 h) of 42.69 ± 1.32 U/mg prot. The GSH-Px level (H2O2-damaged HUVECs [6]; peptide 200 μM for 8 h) was 51.28 ± 3.16 U/mg prot.

`CC(C)C[C@H](N)C(=O)N[C@@H](CO)C(=O)N[C@@H](Cc1ccccc1)C(=O)N[C@@H](CCCNC(=N)N)C(=O)O` [TP7, Leu-Ser-Phe-Arg] (H-LSFR-OH) gave an NO level (HUVECs [3]; [9]) of 35.18 ± 1.2 μmol/gprot, an NO level (HUVECs [3]; peptide 200 μM) of 45.91 ± 1.68 μmol/gprot and an SOD level (H2O2-damaged HUVECs [5]; peptide 100 μM for 8 h) of 141.79 ± 3.96 U/mg prot. The SOD level (H2O2-damaged HUVECs [5]; peptide 200 μM for 8 h) was 158.79 ± 5.93 U/mg prot, the “cell viability of H2O2-damaged HUVECs” value (H2O2-damaged HUVECs [1]; 8 h, 200 μM) was 59.15 ± 2.81% and the ET-1 level (HUVECs [4]; [9]) was 110.36 ± 1.76 pg/mL. The ET-1 level (HUVECs [4]; peptide 200 μM) was 101.49 ± 2.05 pg/mL, the “toxicity to HUVECs (in words)” value (HUVECs [7]) was “no significant toxicity” and the MDA level (H2O2-damaged HUVECs [2]; peptide 200 μM for 8 h) was 20.68 ± 1.06 nmol/mg prot. The GSH-Px level (H2O2-damaged HUVECs [6]; peptide 100 μM for 8 h) was 35.61 ± 1.23 U/mg prot and the GSH-Px level (H2O2-damaged HUVECs [6]; peptide 200 μM for 8 h) was 40.93 ± 2.15 U/mg prot.

`CC[C@H](C)[C@H](N)C(=O)N[C@@H](Cc1ccc(O)cc1)C(=O)N[C@@H](CO)C(=O)N1CCC[C@H]1C(=O)O` [TP10, Ile-Tyr-Ser-Pro] (H-IYSP-OH) gave an NO level (HUVECs [3]; [9]) of 39.27 ± 1.96 μmol/gprot, an NO level (HUVECs [3]; peptide 200 μM) of 46.78 ± 2.47 μmol/gprot and an SOD level (H2O2-damaged HUVECs [5]; peptide 100 μM for 8 h) of 154.35 ± 3.68 U/mg prot. The SOD level (H2O2-damaged HUVECs [5]; peptide 200 μM for 8 h) was 172.93 ± 6.58 U/mg prot, the “cell viability of H2O2-damaged HUVECs” value (H2O2-damaged HUVECs [1]; 8 h, 200 μM) was 61.58 ± 3.04% and the ET-1 level (HUVECs [4]; [9]) was 109.12 ± 2.95 pg/mL. For the same molecule, the ET-1 level (HUVECs [4]; peptide 200 μM) was 96.15 ± 1.35 pg/mL, the “toxicity to HUVECs (in words)” value (HUVECs [7]) was “no significant toxicity” and the MDA level (H2O2-damaged HUVECs [2]; peptide 200 μM for 8 h) was 19.11 ± 0.88 nmol/mg prot. The GSH-Px level (H2O2-damaged HUVECs [6]; peptide 100 μM for 8 h) was 38.91 ± 1.17 U/mg prot and the GSH-Px level (H2O2-damaged HUVECs [6]; peptide 200 μM for 8 h) was 44.69 ± 2.09 U/mg prot.

For EHPVL, the “IC50 on ACE” value (ACE; ACEi peptide from stone fish) is given as 1680 µg/mL.

In the case of FRKE, the “IC50 on ACE” value (ACE; ACEi peptides from Antarctic krill) is given as 6970 µg/mL.

In the case of LGPLGHQ, the “IC50 on ACE” value (ACE; ACEi peptide from skate) is given as 4220 µg/mL.

In the case of MLVFAV, the “IC50 on ACE” value (ACE; ACEi peptide from Katsuwonus pelamis) is given as 2360 µg/mL.

For TP6, Ile-Cys-Tyr (ICY) (peptide), the ACEi activity (IC50): inhibition of ACE hydrolysis of FAPGG, absorbance at 340 nm, 37°C, pH 8.3 [8] was 0.48 mg/mL.

IYSP [TP10, Ile-Tyr-Ser-Pro (IYSP)] showed an ACEi activity (IC50): inhibition of ACE hydrolysis of FAPGG, absorbance at 340 nm, 37°C, pH 8.3 [8] of 0.76 mg/mL.

Molecule LSFR [TP7, Leu-Ser-Phe-Arg (LSFR)] has an ACEi activity (IC50): inhibition of ACE hydrolysis of FAPGG, absorbance at 340 nm, 37°C, pH 8.3 [8] of 0.59 mg/mL.

Source: publication PMC9355146, “Novel angiotensin-converting enzyme inhibitory peptides from tuna byproducts—milts: Preparation, characterization, molecular docking study, and antioxidant function on H2O2-damaged human umbilical vein endothelial cells” (Frontiers in Nutrition, 2022)
